Data published in patent publication US8501245B2, “Selectively inhibiting estrogen production and providing estrogenic effects in the human body” (Morinda, Inc., priority 2000, dated 2013).
Several values for one entry are separate records, joined by “and”; a condition that tells them apart may be missing. Equal entries are not always repeated.

System: ICR derived female immature mice
Assay: Protocol # 531000 Estrogenic Agonism in Mice (uterine wet weight)
Type: in vivo
Details: 0.03 mg/kg PO; for % Increase in uterine wet weight: compared with historical vehicle control (16.5 mg)
Method: Tahitian Noni® Puree Juice Concentrate (TNPJC) dry form was evaluated for possible estrogenic agonism is ICT derived immature female mice at a maximum tolerated dose of 4000 mg/kg administered orally once daily for 3 consecutive days. The dry form of TNPJC resulted from using a Rotor Vap with pressure and low temperature.
Test substance TNCONC was evaluated for possible Estrogenic Agonism in ICR derived female immature mice at a maximum tolerated dose of 4000 mg/kg administered orally once daily for 3 consecutive days.
1. Test Substances and Dosing Pattern—TNCONC, provided by Morinda, Inc., was dissolved in 2% Tween 80/0.9% NaCl. For testing, a maximum tolerated dose of 4000 mg/kg was administered […] daily for 3 consecutive days, and a dosing volume of 10 ml/kg was used.
2. Animals—Female ICR mice provided by MDS Pharma Services—Taiwan Ltd. were used. Space allocation for 5 animals was 29×18×13 cm. Animals were housed in APEC^R cages and maintained in a controlled temperature (22° C.-24° C.) and humidity (60%-80%) environment with 12 hours light dark cycles for at least one week in MDS Pharma Services—Taiwan Laboratory prior to use. Free access to standard lab chow for rats (Lab Diet, Rodent Diet, PMI Nutrition International, USA) and tap water was granted. All aspects of this work including housing, experimentation and disposal of animals were performed in general accordance with the International Guiding Principles for Biomedical Research Involving Animals (CIOMS Publication No. ISBN 92 90360194, 1985),
Test substance was administered at a maximum tolerated dose of 4000 mg/kg IP for three consecutive days to a group of 5 ICR derived immature female mice weighing 13±1 g. The animals were sacrificed 24 hours after the final dose and wet weight of the uterus of each animal was measured. A 50 percent or more (≧50%) increase in uterine wet weight relative to control group of animals indicates possible estrogen agonist activity.
A vehicle or test substance was administered IP for three consecutive days to female immature mice weighing 13±1 g. The animals were sacrificed 24 hours after the final dose and wet weight of the uterus of each animal was determined. A 50 percent or more (≧50%) increase in uterine wet weight relative to the vehicle treated group of animals, shown in parenthesis, indicates possible estrogen agonist activity.

SMILES: C[C@]12CC[C@@H]3c4ccc(OC(=O)c5ccccc5)cc4CC[C@H]3[C@@H]1CC[C@@H]2O [β-Estradiol 3-Benzoate]
- Weight of Uterus, Average: 30.2 mg
- % Increase in uterine wet weight: (83) %
- % Increase in uterine wet weight (listed as Estradiol 3-Bensoate): dramatic increase
- % Increase in uterine wet weight (listed as β-Estadiol 3-Benzoate): 83%
- Weight of Uterus, Individual (single animals N 1-5): 28.7 mg and 20.7 mg and 31.3 mg and 35.6 mg and 34.9 mg
